One assay concerns the target T1, full-length P-Rex1 (Homo sapiens, UniProt Q8TCU6).
T1 construct: Full-length N-terminally EE-tagged P-Rex1, P-Rex2, the P-Rex1 DH and DHPH domains and the P-Rex2 DH domain were produced in Sf9 cells; made in house; host or cells: Sf9 cells (baculovirus)
Put plainly: Liposome-based GEF activity assay, PIP3-stimulated full-length P-Rex1. The note with it: for effect on PIP3-stimulated Rac-GEF activity of full-length P-Rex1: 1, 5 and 10 µM, Rac1 or Rac2 as substrate. The class given is biochemical. From the text: All small GTPases and GEFs used were human recombinant proteins. EE-Rac1, EE-Rac2, GST-Cdc42 or GST-RhoA were expressed in Sf9 cells by baculoviral transduction and purified using their epitope tag in their post-translationally prenylated form using Triton X-114 phase separation, essentially as previously described. Briefly, frozen pellets from a 1 litre culture of Sf9 cells transduced with high-titre baculovirus expressing the small GTPase were resuspended in ice-cold Sf9-cell lysis buffer 1 (1x PBS, 40 mM HEPES pH 7.5 at RT, 5 mM MgCl2, 10 mM EGTA, 300 µM GDP, 1 mM DTT, 200 µM PMSF, 20 μg/ml each of leupeptin, pepstatin A, aprotinin and antipain) and lysed by sonication. Triton X-114 was added (to 1% final concentration), and samples were ultracentrifuged at 118,000 × g for 50 min at 4°C. The supernatant was warmed at 37°C until cloudy (30–60 seconds) and centrifuged at 1300 × g for 2 min at 37°C. The upper phase containing non-lipid modified GTPase was discarded and replaced with ice-cold Sf9-cell lysis buffer. The warming/centrifugation steps were repeated twice and lipid-modified GTPase resuspended in ice-cold Sf9-cell lysis buffer 1 supplemented with Triton X-100 (1% final concentration), followed by ultracentrifugation at 118,000 × g for 50 min at 4°C. For EE-tagged GTPases, supernatants were incubated with anti-EE antibody covalently coupled to protein G-Sepharose beads (anti-EE beads, Onyx Pharmaceuticals) and incubated with end-over-end rotation for 90 min on ice. Beads were washed 3 times in wash buffer (PBS, 5 mM MgCl2, 1 mM DTT, 10 μM GDP, 1 mM EGTA, 0.2% Triton X-100) and 5x in elution buffer (40 mM HEPES pH 7.5, 150 mM NaCl, 5 mM MgCl2, 1 mM EGTA, 1 mM DTT, 10 µM GDP). Protein was eluted by three incubations with elution buffer containing peptide Ac-EEYMPME (Activotec, Comberton, UK) and cholate (first 1%, then twice 0.5%) for 20 min on ice. For GST-tagged GTPases, supernatants were incubated with glutathione Sepharose beads and were eluted with glutathione in the same manner. Proteins were concentrated in a YM-10 Centricon (Millipore) at 5000 × g, 4°C. Protein concentration and purity was determined by coomassie staining of SDS-PAGE gels. For use in the mant-GTP assay, EE-Rac 1 was expressed in BL21 (DE3) bacteria (NEB, C25271), by induction with 0.5 mM IPTG overnight at 18°C. Bacterial pellets from 500 ml cultures were resuspended in 20 ml bacterial lysis buffer (40 mM Hepes, pH 7.5 at 4°C, 150 mM NaCl, 1% Triton X-100, 5 mM MgCl2, 1 mM DTT, 300 μM GDP, 200 µM PMSF, and 20 μg/ml each of leupeptin, pepstatin A, aprotinin and antipain) and were lysed by sonication. 5 μg/ml DNAse and 5 μg/ml RNAse were added and the lysate incubated on ice for 10 min. […]

The subject of another assay is Rac1 or Rac2. Put plainly: Basal GTP-loading of Rac in the absence of P-Rex1 (liposome-based assay). The class given is biochemical, human. The note with it: 10 µM. From the text:
All small GTPases and GEFs used were human recombinant proteins. EE-Rac1, EE-Rac2, GST-Cdc42 or GST-RhoA were expressed in Sf9 cells by baculoviral transduction and purified using their epitope tag in their post-translationally prenylated form using Triton X-114 phase separation, essentially as previously described. Briefly, frozen pellets from a 1 litre culture of Sf9 cells transduced with high-titre baculovirus expressing the small GTPase were resuspended in ice-cold Sf9-cell lysis buffer 1 (1x PBS, 40 mM HEPES pH 7.5 at RT, 5 mM MgCl2, 10 mM EGTA, 300 µM GDP, 1 mM DTT, 200 µM PMSF, 20 μg/ml each of leupeptin, pepstatin A, aprotinin and antipain) and lysed by sonication. Triton X-114 was added (to 1% final concentration), and samples were ultracentrifuged at 118,000 × g for 50 min at 4°C. The supernatant was warmed at 37°C until cloudy (30–60 seconds) and centrifuged at 1300 × g for 2 min at 37°C. The upper phase containing non-lipid modified GTPase was discarded and replaced with ice-cold Sf9-cell lysis buffer. The warming/centrifugation steps were repeated twice and lipid-modified GTPase resuspended in ice-cold Sf9-cell lysis buffer 1 supplemented with Triton X-100 (1% final concentration), followed by ultracentrifugation at 118,000 × g for 50 min at 4°C. […] Protein concentration and purity was determined by coomassie staining of SDS-PAGE gels. […]

The structures appear in SMILES notation.

T1 sequence (Q8TCU6 whole entry, the tested form may be a part): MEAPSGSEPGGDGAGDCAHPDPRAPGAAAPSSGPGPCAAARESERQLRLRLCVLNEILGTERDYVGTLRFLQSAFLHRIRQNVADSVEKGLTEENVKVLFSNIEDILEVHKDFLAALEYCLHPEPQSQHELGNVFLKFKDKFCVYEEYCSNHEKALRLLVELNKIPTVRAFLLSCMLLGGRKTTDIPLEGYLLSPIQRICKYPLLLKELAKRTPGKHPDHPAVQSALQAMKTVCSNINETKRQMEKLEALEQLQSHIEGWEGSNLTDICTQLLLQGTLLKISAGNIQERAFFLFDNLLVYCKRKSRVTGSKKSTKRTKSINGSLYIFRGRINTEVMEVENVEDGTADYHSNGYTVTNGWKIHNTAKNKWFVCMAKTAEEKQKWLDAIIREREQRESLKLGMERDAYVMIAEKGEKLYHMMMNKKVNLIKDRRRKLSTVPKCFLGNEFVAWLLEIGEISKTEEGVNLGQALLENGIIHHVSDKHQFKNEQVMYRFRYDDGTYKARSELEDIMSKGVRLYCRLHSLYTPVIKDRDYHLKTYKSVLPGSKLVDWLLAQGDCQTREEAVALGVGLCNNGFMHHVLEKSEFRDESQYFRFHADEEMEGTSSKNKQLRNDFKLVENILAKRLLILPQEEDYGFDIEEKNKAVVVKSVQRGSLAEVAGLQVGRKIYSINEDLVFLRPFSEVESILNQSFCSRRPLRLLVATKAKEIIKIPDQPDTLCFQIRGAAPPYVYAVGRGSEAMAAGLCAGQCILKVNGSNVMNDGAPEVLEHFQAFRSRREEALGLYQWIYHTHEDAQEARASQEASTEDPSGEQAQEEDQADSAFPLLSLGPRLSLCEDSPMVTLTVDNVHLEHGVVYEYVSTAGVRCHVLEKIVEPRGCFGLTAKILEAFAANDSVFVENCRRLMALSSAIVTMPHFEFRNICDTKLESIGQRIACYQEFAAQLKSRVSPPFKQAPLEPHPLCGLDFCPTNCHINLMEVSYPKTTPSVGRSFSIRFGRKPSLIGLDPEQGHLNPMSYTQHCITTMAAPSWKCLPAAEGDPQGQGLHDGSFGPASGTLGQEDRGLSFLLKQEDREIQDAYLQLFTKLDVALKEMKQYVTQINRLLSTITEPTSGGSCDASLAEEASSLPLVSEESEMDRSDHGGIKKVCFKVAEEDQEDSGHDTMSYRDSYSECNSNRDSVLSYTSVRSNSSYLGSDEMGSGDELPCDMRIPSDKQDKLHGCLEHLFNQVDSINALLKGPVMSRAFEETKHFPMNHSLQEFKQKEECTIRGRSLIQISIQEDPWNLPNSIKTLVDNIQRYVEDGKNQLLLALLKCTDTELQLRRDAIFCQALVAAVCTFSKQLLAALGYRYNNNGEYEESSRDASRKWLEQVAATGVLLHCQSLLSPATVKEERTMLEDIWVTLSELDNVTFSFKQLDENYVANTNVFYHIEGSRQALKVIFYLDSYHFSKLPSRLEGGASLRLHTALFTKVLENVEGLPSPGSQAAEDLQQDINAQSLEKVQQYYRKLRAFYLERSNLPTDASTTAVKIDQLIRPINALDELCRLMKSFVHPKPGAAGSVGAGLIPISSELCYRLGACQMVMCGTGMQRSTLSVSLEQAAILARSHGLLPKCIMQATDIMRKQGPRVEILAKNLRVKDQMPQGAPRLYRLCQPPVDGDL

On to `COc1ccc(-c2[nH]nc3c2C(c2ccc(-c4ccc(Cl)cc4)o2)C(C#N)=C(N)O3)cc1` (centres unmarked) [PREX-in1, 6-amino-4-[5-(4-chlorophenyl)-2-furyl]-3-(4-methoxyphenyl)-2,4-dihydropyrano[2,3-c]pyrazole-5-carbonitrile], for which the “reduction of PIP3-stimulated Rac-GEF activity of full-length P-Rex1” value on full-length P-Rex1 (10 µM, 50 nM P-Rex1, 100 nM prenylated Rac1, 10 µM PIP3) is reported as 56%. In addition, the “effect on PIP3-stimulated Rac-GEF activity of full-length P-Rex1” value on full-length P-Rex1 is recorded as “inhibited”. Further, the “effect on basal GTP-loading of Rac1 or Rac2 in the absence of P-Rex1” value in the assay with Rac1 or Rac2 is given as “neither compound affected”.

For the compound `CC1CCC(C(C)C)c2nn(C(=O)/C=C\c3ccccc3)c(-c3cccc4ccccc34)c21` (centres unmarked) [#10], the “effect on PIP3-stimulated Rac-GEF activity of full-length P-Rex1” value on full-length P-Rex1 was “inhibited”. The “effect on basal GTP-loading of Rac1 or Rac2 in the absence of P-Rex1” value in the assay with Rac1 or Rac2 is listed as “neither compound affected”.

These data come from PMC9645260, “Small-molecule inhibitors of P-Rex guanine-nucleotide exchange factors” (Small GTPases, 2022).
